Reference: ChEMBL document CHEMBL3885861, “Open TG-GATES”

Organism: Rattus norvegicus
Experiment: Open TG-GATES - Regimen: Single
Type: toxicity, organism-based, Sprague-Dawley
Set-up: regimen Single, gender Male, age 6 weeks
Conditions: in vivo, po, route gavage; for KIDNEY_L / KIDNEY_R / KIDNEY_TOTAL: tissue Kidney; for ALP / ALT / BUN / CRE / DBIL / GLC / IP / K / Na / RALB / TBIL / TG / TP / gamma-GTP / PL: tissue Plasma; for LIVER: tissue Liver
[1] = 10 mg/kg, 3 h, tissue Blood, dose level Middle
[2] = 10 mg/kg, 3 h, dose level Middle
[3] = 10 mg/kg, 6 h, dose level Middle
[4] = 10 mg/kg, 6 h, tissue Blood, dose level Middle
[5] = 10 mg/kg, 9 h, dose level Middle
[6] = 10 mg/kg, 9 h, tissue Blood, dose level Middle
[7] = 10 mg/kg, 24 h, dose level Middle
[8] = 10 mg/kg, 24 h, tissue Blood, dose level Middle
[9] = 30 mg/kg, 3 h, tissue Blood, dose level High
[10] = 30 mg/kg, 6 h, tissue Blood, dose level High
[11] = 30 mg/kg, 9 h, tissue Blood, dose level High
[12] = 30 mg/kg, 24 h, dose level High
[13] = 30 mg/kg, 24 h, tissue Blood, dose level High

Q: What does the source list for CNCCC(Oc1ccc(C(F)(F)F)cc1)c1ccccc1.Cl (centres undefined) [FLUOXETINE HYDROCHLORIDE]?
A: Bas [1]: 0%; Eos [1]: 1.2%; Ht [1]: 41.6%; Lym [1]: 68.4%; MCHC [1]: 32.1%; Ret [1]: 8.7%; WBC [1]: 85.2 x10_2/uL; KIDNEY_L [2]: 1 g; KIDNEY_R [2]: 1 g; KIDNEY_TOTAL [2]: 2 g; ALP [2]: 1509 IU/L; ALT [2]: 36.6 IU/L; BUN [2]: 13.8 mg/dL; CRE [2]: 0.4 mg/dL; DBIL [2]: 0.014 mg/dL; GLC [2]: 201.4 mg/dL; IP [2]: 10.3 mg/dL; K [2]: 5.2 meq/L; Na [2]: 138.6 meq/L; RALB [2]: 4.1 g/dL; TBIL [2]: 0.042 mg/dL; TG [2]: 128.6 mg/dL; TP [2]: 5.9 g/dL; gamma-GTP [2]: 0 IU/L; TERMINAL_BW [3]: 215.2 g; Bas [4]: 0%; Eos [4]: 1%; Ht [4]: 40.8%; Lym [4]: 70%; MCH [4]: 21.9 pg; MCHC [4]: 32.6%; Ret [4]: 8.2%; WBC [4]: 96.4 x10_2/uL; KIDNEY_L [3]: 0.9 g; KIDNEY_R [3]: 1 g; KIDNEY_TOTAL [3]: 1.9 g; LIVER [3]: 10 g; ALP [3]: 1142 IU/L; ALT [3]: 32.8 IU/L; BUN [3]: 10.8 mg/dL; CRE [3]: 0.4 mg/dL; DBIL [3]: 0.008 mg/dL; GLC [3]: 193.8 mg/dL; IP [3]: 9.7 mg/dL; K [3]: 4.9 meq/L; Na [3]: 137.4 meq/L; RALB [3]: 3.9 g/dL; TBIL [3]: 0.038 mg/dL; TG [3]: 85.8 mg/dL; TP [3]: 5.4 g/dL; gamma-GTP [3]: 1 IU/L; TERMINAL_BW [5]: 214.8 g; Bas [6]: 0%; Eos [6]: 1%; Ht [6]: 40.2%; Lym [6]: 75.6%; MCHC [6]: 32.5%; Ret [6]: 7.8%; WBC [6]: 95 x10_2/uL; KIDNEY_L [5]: 1 g; KIDNEY_R [5]: 1 g; KIDNEY_TOTAL [5]: 1.9 g; LIVER [5]: 9.2 g; ALP [5]: 1045.4 IU/L; ALT [5]: 28.8 IU/L; BUN [5]: 10.6 mg/dL; CRE [5]: 0.4 mg/dL; DBIL [5]: 0.006 mg/dL; GLC [5]: 191 mg/dL; IP [5]: 10.8 mg/dL; K [5]: 5 meq/L; Na [5]: 137.9 meq/L; PL [5]: 135 mg/dL; RALB [5]: 3.8 g/dL; TBIL [5]: 0.04 mg/dL; TG [5]: 41.4 mg/dL; TP [5]: 5.3 g/dL; gamma-GTP [5]: 0.6 IU/L; TERMINAL_BW [7]: 227.3 g; Bas [8]: 0%; Eos [8]: 1%; Ht [8]: 41.2%; Lym [8]: 76.2%; MCHC [8]: 32.6%; Ret [8]: 7.7%; WBC [8]: 100.4 x10_2/uL; KIDNEY_L [7]: 1 g; KIDNEY_R [7]: 1 g; KIDNEY_TOTAL [7]: 1.9 g; LIVER [7]: 11 g; ALP [7]: 1378 IU/L; ALT [7]: 34.6 IU/L; BUN [7]: 16.4 mg/dL; CRE [7]: 0.4 mg/dL; DBIL [7]: 0.01 mg/dL; GLC [7]: 192.6 mg/dL; IP [7]: 7.9 mg/dL; K [7]: 5.1 meq/L; Na [7]: 138.1 meq/L; RALB [7]: 3.9 g/dL; TBIL [7]: 0.034 mg/dL; TG [7]: 152.6 mg/dL; TP [7]: 5.5 g/dL; gamma-GTP [7]: 1 IU/L; TERMINAL_BW (30 mg/kg, 3 h, dose level High): 214.6 g; Bas [9]: 0%; Eos [9]: 1.2%; Ht [9]: 39.9%; Lym [9]: 67.4%; MCHC [9]: 32.6%; Ret [9]: 8.7%; WBC [9]: 79.4 x10_2/uL; KIDNEY_L (30 mg/kg, 3 h, dose level High): 0.9 g; KIDNEY_R (30 mg/kg, 3 h, dose level High): 1 g; KIDNEY_TOTAL (30 mg/kg, 3 h, dose level High): 1.9 g; LIVER (30 mg/kg, 3 h, dose level High): 9.8 g; ALP (30 mg/kg, 3 h, dose level High): 1364.6 IU/L; ALT (30 mg/kg, 3 h, dose level High): 36.4 IU/L; BUN (30 mg/kg, 3 h, dose level High): 10.6 mg/dL; CRE (30 mg/kg, 3 h, dose level High): 0.4 mg/dL; DBIL (30 mg/kg, 3 h, dose level High): 0.01 mg/dL; GLC (30 mg/kg, 3 h, dose level High): 201.4 mg/dL; IP (30 mg/kg, 3 h, dose level High): 10.1 mg/dL; K (30 mg/kg, 3 h, dose level High): 4.4 meq/L; Na (30 mg/kg, 3 h, dose level High): 138.6 meq/L; RALB (30 mg/kg, 3 h, dose level High): 4.1 g/dL; TBIL (30 mg/kg, 3 h, dose level High): 0.048 mg/dL; TG (30 mg/kg, 3 h, dose level High): 77.8 mg/dL; TP (30 mg/kg, 3 h, dose level High): 5.7 g/dL; gamma-GTP (30 mg/kg, 3 h, dose level High): 0.2 IU/L; TERMINAL_BW (30 mg/kg, 6 h, dose level High): 217.1 g; Bas [10]: 0%; Eos [10]: 1.2%; Ht [10]: 42%; Lym [10]: 73.2%; MCHC [10]: 32.3%; Ret [10]: 6.9%; WBC [10]: 82.6 x10_2/uL; KIDNEY_L (30 mg/kg, 6 h, dose level High): 0.9 g; KIDNEY_R (30 mg/kg, 6 h, dose level High): 1 g; KIDNEY_TOTAL (30 mg/kg, 6 h, dose level High): 1.9 g; LIVER (30 mg/kg, 6 h, dose level High): 9.3 g; ALP (30 mg/kg, 6 h, dose level High): 1193 IU/L; ALT (30 mg/kg, 6 h, dose level High): 31 IU/L; BUN (30 mg/kg, 6 h, dose level High): 9.2 mg/dL; CRE (30 mg/kg, 6 h, dose level High): 0.4 mg/dL; DBIL (30 mg/kg, 6 h, dose level High): 0.01 mg/dL; GLC (30 mg/kg, 6 h, dose level High): 198.8 mg/dL; IP (30 mg/kg, 6 h, dose level High): 9.9 mg/dL; K (30 mg/kg, 6 h, dose level High): 5.2 meq/L; Na (30 mg/kg, 6 h, dose level High): 137.7 meq/L; PL (30 mg/kg, 6 h, dose level High): 134.4 mg/dL; RALB (30 mg/kg, 6 h, dose level High): 3.8 g/dL; TBIL (30 mg/kg, 6 h, dose level High): 0.038 mg/dL; TG (30 mg/kg, 6 h, dose level High): 47.2 mg/dL; TP (30 mg/kg, 6 h, dose level High): 5.4 g/dL; gamma-GTP (30 mg/kg, 6 h, dose level High): 1 IU/L; TERMINAL_BW (30 mg/kg, 9 h, dose level High): 211.4 g; Bas [11]: 0%; Eos [11]: 0.8%; Ht [11]: 40.9%; Lym [11]: 77.8%; MCHC [11]: 32.4%; Ret [11]: 7.1%; WBC [11]: 90.6 x10_2/uL; KIDNEY_L (30 mg/kg, 9 h, dose level High): 0.9 g; KIDNEY_R (30 mg/kg, 9 h, dose level High): 1 g; KIDNEY_TOTAL (30 mg/kg, 9 h, dose level High): 1.9 g; LIVER (30 mg/kg, 9 h, dose level High): 9 g; ALP (30 mg/kg, 9 h, dose level High): 1165 IU/L; ALT (30 mg/kg, 9 h, dose level High): 28.8 IU/L; BUN (30 mg/kg, 9 h, dose level High): 8.4 mg/dL; CRE (30 mg/kg, 9 h, dose level High): 0.4 mg/dL; DBIL (30 mg/kg, 9 h, dose level High): 0.01 mg/dL; GLC (30 mg/kg, 9 h, dose level High): 202.8 mg/dL; IP (30 mg/kg, 9 h, dose level High): 11.1 mg/dL; K (30 mg/kg, 9 h, dose level High): 5.1 meq/L; Na (30 mg/kg, 9 h, dose level High): 138.2 meq/L; PL (30 mg/kg, 9 h, dose level High): 145.2 mg/dL; RALB (30 mg/kg, 9 h, dose level High): 3.9 g/dL; TBIL (30 mg/kg, 9 h, dose level High): 0.048 mg/dL; TG (30 mg/kg, 9 h, dose level High): 53 mg/dL; TP (30 mg/kg, 9 h, dose level High): 5.4 g/dL; gamma-GTP (30 mg/kg, 9 h, dose level High): 0.2 IU/L; TERMINAL_BW [12]: 222.3 g; Bas [13]: 0%; Eos [13]: 1%; Ht [13]: 40.1%; Lym [13]: 75.4%; MCHC [13]: 32.6%; Ret [13]: 7.8%; WBC [13]: 81 x10_2/uL; KIDNEY_L [12]: 1 g; KIDNEY_R [12]: 1 g; KIDNEY_TOTAL [12]: 2 g; LIVER [12]: 10.5 g; ALP [12]: 1406.6 IU/L; ALT [12]: 31 IU/L; CRE [12]: 0.4 mg/dL; DBIL [12]: 0.01 mg/dL; GLC [12]: 200 mg/dL; IP [12]: 8 mg/dL; K [12]: 5.2 meq/L; Na [12]: 138.1 meq/L; RALB [12]: 4 g/dL; TBIL [12]: 0.028 mg/dL; TG [12]: 100.4 mg/dL; TP [12]: 5.7 g/dL; gamma-GTP [12]: 1 IU/L
